Measurements: ChEMBL document CHEMBL1201862, “PubChem BioAssay data set” (2004)
Activity calls are given as the source filed them.

What was measured:
[1] = cytotoxicity in HEK-293T NF-kB-Luc cells, dose response, cytotoxicity control for B/T-cell NF-kB inhibitor project, cell-based, uHTS hits (AID 489019); assay type: functional;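 further: IC50 reflects cytotoxicity as loss of cell viability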
[2] = tested on: HT-1080; test: cytotoxicity in HT1080 fibrosarcoma cells, cell-based, fluorescence readout (AID 620); assay type: functional; conditions: Homo sapiens
[3] = tested on: Jurkat; test: antigen receptor-induced NF-kB inhibitors, dose response, Jurkat, luciferase reporter, luminescence, B- and T-cell (AID 489004); assay type: functional, cell-based; conditions: Homo sapiens;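 further: NF-kB luciferase reporter Jurkat cells stimulated with PMA plus ionomycin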
[4] = tested on: HEK293; test: PMA/Ionomycin induced NF-kB luciferase assay in 293- NF-kB-Luc stable cells. [Related pubchem assays: 1299, 1270, 1295, 1375, 1287, 1281, 1293, 1291, 1289, 1280, 465, 1364, 1282, 1372, 1365, 1370, 1367, 1366, 1269, 1373, 1292, 1290, 1302, 1371, 1283, 1271, 1294, 1374, 1368, 1369 ]; assay type: functional, cell-based; conditions: Homo sapiens
[5] = target: T1, Luciferin 4-monooxygenase (Photinus pyralis, UniProt P08659); test: In vitro luciferase assay using purified luciferase. [Related pubchem assays: 1299, 1270, 1295, 1375, 1287, 1281, 1293, 1291, 1289, 1280, 465, 1364, 1282, 1372, 1365, 1370, 1367, 1366, 1266, 1373, 1292, 1290, 1302, 1371, 1283, 1271, 1294, 1374, 1368, 1369 ]
T1 sequence (P08659 whole entry): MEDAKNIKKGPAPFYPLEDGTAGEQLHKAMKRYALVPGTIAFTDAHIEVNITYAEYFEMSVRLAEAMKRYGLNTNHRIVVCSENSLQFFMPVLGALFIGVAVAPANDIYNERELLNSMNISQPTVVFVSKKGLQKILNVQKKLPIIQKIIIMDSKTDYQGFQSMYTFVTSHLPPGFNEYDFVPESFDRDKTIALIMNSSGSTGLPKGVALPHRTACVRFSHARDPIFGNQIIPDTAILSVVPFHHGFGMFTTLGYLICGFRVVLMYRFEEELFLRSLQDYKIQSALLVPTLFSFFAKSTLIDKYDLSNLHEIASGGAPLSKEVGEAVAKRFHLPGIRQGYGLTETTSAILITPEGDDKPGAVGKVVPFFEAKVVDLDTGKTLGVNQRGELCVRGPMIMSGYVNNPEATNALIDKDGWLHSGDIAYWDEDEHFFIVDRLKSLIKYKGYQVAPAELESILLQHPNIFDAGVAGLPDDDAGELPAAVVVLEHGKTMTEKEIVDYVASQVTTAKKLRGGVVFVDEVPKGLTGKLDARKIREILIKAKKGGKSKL

[6] = target: T2, Heat shock factor protein 1 (Mus musculus, UniProt P38532); test: inhibition of MG132-induced HSE-luciferase signal, confirmation, cell-based, NIH3T3, luminescence, dose retest (AID 2382); assay type: functional;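 further: NIH3T3 fibroblasts with HSF1-driven luciferase reporter stressed by proteasome inhibitor MG132; luminescence from HSF1-driven luciferase expression after 8 hours of MG132 stress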
T2 sequence (P38532 whole entry): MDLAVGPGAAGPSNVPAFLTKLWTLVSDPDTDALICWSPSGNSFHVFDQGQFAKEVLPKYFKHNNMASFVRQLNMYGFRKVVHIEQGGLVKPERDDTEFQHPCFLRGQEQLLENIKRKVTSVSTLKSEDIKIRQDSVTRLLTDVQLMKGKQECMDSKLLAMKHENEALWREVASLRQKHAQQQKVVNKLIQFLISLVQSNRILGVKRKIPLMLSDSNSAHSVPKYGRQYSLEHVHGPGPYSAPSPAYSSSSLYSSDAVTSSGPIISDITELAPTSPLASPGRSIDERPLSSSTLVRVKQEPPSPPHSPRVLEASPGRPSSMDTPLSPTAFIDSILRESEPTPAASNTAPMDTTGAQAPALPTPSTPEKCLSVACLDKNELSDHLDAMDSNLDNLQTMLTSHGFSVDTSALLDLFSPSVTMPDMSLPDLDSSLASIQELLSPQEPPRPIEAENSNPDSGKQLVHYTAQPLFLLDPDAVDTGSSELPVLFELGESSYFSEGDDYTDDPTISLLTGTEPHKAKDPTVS

[7] = target: T1, Luciferin 4-monooxygenase; test: Counter Screen for Luciferase-based Assay Positives. [Related pubchem assays: 620, 618, 411 ]
[8] = target: T3, Microphthalmia-associated transcription factor (Homo sapiens, UniProt O75030); test: TRPM1 promoter luciferase signal decrease, dose response, MITF inhibitor project, cell-based, SK-MEL-5, cherry-picked, set 3 (AID 493073); assay type: functional
T3 sequence (O75030 whole entry): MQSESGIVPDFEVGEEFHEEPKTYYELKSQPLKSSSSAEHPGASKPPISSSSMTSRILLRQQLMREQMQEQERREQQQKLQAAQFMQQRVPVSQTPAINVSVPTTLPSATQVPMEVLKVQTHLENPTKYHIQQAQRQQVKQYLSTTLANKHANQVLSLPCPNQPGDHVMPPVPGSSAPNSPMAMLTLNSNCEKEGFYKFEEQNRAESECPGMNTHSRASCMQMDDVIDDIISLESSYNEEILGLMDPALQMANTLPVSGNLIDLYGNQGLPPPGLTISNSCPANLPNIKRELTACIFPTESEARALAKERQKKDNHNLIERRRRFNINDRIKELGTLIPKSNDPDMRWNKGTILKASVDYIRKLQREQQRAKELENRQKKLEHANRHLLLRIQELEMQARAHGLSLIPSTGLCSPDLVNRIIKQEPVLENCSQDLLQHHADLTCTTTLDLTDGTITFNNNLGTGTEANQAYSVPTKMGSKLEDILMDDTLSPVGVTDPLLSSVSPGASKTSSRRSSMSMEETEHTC

[9] = tested on: HEK293; test: Cytotoxicity assay in HEK293 cells. [Related pubchem assays (depositor defined):AID1266, AID1269, AID1270, AID1271, AID1280, AID1281, AID1282, AID1283, AID1287, AID1289, AID1290, AID1291, AID1292, AID1293, AID1294, AID1295, AID1299, AID1302, AID1364, AID1365, AID1366, AID1367, AID1369, AID1370, AID1371, AID1372, AID1373, AID1374, AID1375, AID1384 …; assay type: functional, cell-based; conditions: Homo sapiens
[10] = target: T4, Estrogen receptor (Homo sapiens, UniProt P03372);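 further: potency for inhibiting coactivator peptide recruitment to the receptor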
T4 sequence (P03372 whole entry): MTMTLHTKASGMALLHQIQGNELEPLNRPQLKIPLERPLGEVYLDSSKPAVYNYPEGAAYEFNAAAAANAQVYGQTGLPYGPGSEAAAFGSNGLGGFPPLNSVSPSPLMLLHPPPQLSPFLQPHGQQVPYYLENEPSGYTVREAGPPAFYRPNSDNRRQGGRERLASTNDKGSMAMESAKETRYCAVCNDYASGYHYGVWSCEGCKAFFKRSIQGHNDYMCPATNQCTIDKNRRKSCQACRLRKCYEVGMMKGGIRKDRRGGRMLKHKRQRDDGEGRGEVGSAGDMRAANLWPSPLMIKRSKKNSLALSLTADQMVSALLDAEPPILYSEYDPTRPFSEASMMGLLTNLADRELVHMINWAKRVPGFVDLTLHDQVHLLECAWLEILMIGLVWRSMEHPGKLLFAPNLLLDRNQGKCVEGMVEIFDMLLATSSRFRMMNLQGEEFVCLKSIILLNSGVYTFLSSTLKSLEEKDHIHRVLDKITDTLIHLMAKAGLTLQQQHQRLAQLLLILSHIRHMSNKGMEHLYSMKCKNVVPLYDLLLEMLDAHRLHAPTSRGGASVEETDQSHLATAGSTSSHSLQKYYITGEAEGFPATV

[11] = target: T5, Estrogen receptor beta (Homo sapiens, UniProt Q92731); test: ERβ–SRC-3 coactivator interaction inhibitors, confirmation, orthogonal assay, biochemical, ELISA, streptavidin-HRP readout (AID 1060)
T5 sequence (Q92731 whole entry): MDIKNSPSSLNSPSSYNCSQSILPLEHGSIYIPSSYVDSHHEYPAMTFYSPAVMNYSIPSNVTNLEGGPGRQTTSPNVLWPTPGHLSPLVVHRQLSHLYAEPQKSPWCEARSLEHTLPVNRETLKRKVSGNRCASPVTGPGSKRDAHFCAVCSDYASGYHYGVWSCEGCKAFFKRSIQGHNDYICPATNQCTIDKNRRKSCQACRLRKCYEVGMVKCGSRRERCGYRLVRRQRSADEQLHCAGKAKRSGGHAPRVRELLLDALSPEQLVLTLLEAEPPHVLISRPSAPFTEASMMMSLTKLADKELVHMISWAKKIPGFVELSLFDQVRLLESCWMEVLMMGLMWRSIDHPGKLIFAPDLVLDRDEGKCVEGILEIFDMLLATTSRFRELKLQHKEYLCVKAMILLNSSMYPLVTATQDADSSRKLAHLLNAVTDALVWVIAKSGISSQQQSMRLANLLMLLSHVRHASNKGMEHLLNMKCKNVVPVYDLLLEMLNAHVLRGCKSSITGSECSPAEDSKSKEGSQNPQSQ

[12] = target: T5, Estrogen receptor beta
[13] = target: T6, Carboxy-terminal domain RNA polymerase II polypeptide A small phosphatase 1 (Homo sapiens, UniProt Q9GZU7); test: inhibitors of CTDSP1, concentration-response testing, biochemical assay, absorbance-based, actives from ultra-high-throughput screening (AID 540297); assay type: functional
T6 sequence (Q9GZU7 whole entry): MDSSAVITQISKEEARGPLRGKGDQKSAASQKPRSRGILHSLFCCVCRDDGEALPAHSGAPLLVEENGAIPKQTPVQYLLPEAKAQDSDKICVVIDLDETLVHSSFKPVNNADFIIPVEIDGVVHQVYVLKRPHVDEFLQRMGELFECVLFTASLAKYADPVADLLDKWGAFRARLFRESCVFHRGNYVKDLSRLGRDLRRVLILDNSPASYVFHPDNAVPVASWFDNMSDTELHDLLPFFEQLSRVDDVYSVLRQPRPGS

[14] = target: Bcl-2-like protein 10 (Homo sapiens, UniProt Q9HD36); test: displacers of TR3 peptide from Bcl-B, primary screen, selectivity assay for Bfl-1 inhibitor project, biochemical, fluorescence polarization, FITC-TR3 peptide (AID 748);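 further: fluorescence polarization from a fluorescein-labelled TR3 peptide binding purified Bcl-B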
Bcl-2-like protein 10, sequence (Q9HD36 whole entry): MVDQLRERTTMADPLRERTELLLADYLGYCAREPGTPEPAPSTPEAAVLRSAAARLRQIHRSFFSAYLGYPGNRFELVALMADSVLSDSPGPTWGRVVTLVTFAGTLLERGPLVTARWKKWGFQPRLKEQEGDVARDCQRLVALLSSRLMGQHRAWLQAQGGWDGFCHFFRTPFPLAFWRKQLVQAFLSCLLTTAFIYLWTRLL

[15] = target: T7, Eukaryotic translation initiation factor 2-alpha kinase 3 (Homo sapiens, UniProt Q9NZJ5); test: Dose response cell-based high-throughput screening assay to measure PERK inhibition. [Related pubchem assays: 1416 ]; assay type: functional
T7 sequence (Q9NZJ5 whole entry): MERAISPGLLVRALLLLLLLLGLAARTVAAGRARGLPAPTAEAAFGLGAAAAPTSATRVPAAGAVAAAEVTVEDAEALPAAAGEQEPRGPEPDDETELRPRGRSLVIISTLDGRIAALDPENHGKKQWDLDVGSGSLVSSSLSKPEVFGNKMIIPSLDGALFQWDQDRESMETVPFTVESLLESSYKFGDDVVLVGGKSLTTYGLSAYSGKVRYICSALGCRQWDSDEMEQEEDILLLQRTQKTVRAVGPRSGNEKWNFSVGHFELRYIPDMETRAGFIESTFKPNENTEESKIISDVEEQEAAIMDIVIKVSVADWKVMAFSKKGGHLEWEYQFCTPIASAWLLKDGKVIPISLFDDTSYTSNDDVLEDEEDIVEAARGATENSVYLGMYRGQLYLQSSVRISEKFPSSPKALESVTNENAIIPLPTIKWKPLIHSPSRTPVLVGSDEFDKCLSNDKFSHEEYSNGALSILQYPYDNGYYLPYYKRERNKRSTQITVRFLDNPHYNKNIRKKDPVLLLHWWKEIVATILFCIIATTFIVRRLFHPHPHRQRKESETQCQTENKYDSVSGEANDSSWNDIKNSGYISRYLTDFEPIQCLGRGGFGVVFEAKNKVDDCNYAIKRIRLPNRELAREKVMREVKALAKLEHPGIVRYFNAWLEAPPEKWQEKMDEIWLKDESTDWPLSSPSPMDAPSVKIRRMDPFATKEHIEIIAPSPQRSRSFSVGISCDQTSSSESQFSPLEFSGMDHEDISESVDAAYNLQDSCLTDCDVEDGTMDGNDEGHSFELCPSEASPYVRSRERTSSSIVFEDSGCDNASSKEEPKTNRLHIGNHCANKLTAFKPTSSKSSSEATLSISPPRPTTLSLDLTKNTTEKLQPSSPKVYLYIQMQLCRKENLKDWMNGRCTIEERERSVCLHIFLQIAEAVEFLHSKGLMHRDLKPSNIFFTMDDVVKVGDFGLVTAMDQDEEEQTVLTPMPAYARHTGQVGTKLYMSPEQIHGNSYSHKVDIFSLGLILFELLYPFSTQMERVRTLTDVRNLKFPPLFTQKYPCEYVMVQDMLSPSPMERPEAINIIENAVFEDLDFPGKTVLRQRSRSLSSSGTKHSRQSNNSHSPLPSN

[16] = target: T7, Eukaryotic translation initiation factor 2-alpha kinase 3; test: Counterscreen assay for PERK inhibitors: Dose response cell-based high throughput screening assay to measure inhibition of PERK at 6 hours. [Related pubchem assays: 1522, 1416 ]; assay type: functional
[17] = target: C-C chemokine receptor type 6 (Homo sapiens, UniProt P51684); test: CCR6 receptor antagonists, dose response, cell-based, luminescent beta-arrestin readout (AID 504728); assay type: functional
C-C chemokine receptor type 6, sequence (P51684 whole entry): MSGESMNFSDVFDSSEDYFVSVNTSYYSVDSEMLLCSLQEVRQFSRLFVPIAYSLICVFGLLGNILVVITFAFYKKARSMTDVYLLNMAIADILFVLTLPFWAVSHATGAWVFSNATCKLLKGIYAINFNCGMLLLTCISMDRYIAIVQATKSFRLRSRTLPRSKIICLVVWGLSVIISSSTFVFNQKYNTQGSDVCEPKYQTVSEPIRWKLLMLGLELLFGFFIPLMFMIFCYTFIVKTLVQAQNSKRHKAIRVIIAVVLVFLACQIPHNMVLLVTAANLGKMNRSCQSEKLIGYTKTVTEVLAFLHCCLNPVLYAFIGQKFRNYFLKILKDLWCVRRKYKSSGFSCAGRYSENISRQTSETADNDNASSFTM

[18] = microbe, parasite or virus in culture; assay type: functional; conditions: Mycobacterium tuberculosis
[19] = target: T8, Mannose-6-phosphate isomerase (Homo sapiens, UniProt P34949); test: human PMI inhibitors, high substrate, primary screen, biochemical, fluorescence intensity, high mannose 6-phosphate (AID 1220)
T8 sequence (P34949 whole entry): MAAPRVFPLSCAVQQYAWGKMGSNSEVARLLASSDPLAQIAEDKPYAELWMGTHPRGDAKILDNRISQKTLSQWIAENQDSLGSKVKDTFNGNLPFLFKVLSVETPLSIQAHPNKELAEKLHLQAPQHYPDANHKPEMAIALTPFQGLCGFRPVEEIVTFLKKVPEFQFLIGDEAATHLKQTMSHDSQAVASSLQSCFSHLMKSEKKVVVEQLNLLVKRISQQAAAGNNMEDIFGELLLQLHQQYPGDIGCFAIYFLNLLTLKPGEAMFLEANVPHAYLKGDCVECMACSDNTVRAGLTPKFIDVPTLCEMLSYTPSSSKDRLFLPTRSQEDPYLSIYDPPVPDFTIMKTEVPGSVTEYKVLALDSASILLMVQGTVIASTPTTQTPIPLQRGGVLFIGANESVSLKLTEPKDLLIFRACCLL

[20] = target: Beta-galactosidase (Escherichia coli, UniProt Q8VNN2); test: beta-galactosidase enzyme inhibitors and activators, dose response, artefact control for CCR6 antagonist project, biochemical, E. coli enzyme, set 3 (AID 504712); assay type: functional
Beta-galactosidase, sequence (Q8VNN2 whole entry): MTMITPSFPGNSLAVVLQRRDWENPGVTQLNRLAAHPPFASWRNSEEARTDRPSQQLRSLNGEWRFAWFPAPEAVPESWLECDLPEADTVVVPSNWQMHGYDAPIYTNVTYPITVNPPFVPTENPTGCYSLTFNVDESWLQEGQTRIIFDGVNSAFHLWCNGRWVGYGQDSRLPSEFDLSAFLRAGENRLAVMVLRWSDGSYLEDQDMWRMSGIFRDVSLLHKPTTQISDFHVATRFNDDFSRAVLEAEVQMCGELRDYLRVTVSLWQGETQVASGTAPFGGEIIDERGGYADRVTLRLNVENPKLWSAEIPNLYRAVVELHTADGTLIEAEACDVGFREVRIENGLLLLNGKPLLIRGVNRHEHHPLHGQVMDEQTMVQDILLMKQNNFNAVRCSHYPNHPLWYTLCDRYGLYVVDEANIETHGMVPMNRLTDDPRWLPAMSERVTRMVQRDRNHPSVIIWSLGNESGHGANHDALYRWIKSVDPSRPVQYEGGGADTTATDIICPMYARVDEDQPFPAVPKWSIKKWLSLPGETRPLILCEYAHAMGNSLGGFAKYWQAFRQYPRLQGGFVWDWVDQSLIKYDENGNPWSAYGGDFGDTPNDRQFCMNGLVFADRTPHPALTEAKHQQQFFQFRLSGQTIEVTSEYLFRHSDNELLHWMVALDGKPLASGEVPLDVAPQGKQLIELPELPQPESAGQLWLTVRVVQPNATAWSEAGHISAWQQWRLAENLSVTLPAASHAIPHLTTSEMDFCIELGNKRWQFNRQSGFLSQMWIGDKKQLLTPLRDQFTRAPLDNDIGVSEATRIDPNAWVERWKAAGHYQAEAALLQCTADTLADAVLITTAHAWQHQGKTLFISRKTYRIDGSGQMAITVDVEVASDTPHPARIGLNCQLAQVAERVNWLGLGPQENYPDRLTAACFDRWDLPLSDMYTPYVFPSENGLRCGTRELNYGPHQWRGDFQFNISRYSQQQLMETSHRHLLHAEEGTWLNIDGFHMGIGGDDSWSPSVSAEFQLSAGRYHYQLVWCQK

[21] = target: T8, Mannose-6-phosphate isomerase; test: inhibitors of human PMI, primary screen, biochemical, fluorescence intensity, coupled assay (AID 1209)
[22] = target: Galanin receptor type 2 (Homo sapiens, UniProt O43603); test: Dose Response cell-based high-throughput screening assay to identify antagonists of galanin receptor 2 (GALR2). [Related pubchem assays: 828, 866 ]; assay type: functional
Galanin receptor type 2, sequence (O43603 whole entry): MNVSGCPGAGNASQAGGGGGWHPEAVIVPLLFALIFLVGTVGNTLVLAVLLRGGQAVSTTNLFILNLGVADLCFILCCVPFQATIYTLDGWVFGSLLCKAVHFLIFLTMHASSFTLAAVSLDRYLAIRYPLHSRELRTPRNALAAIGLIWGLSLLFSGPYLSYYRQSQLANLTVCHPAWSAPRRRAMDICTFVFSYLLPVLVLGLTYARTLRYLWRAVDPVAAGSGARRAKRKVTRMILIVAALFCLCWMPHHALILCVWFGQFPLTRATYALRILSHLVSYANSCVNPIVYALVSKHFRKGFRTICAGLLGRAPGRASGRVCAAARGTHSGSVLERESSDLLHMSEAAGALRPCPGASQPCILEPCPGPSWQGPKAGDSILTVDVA

[23] = target: T2, Heat shock factor protein 1; test: HSF1 potentiators in luciferase reporter cells, confirmation, cell-based, NIH3T3, luminescence, dose retest (AID 435004); assay type: functional;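 further: stress induced by proteasome inhibitor MG132 added 30 min after compound; luciferase reporter driven by HSF1 response element in NIH3T3 cells; actives raise luminescence as potentiators of the MG132 stress response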
[24] = Cytotoxicity screening for potential Inhibitors of Bacterial Capsule Biogenesis. [Related pubchem assays (depositor defined):AID488970]; assay type: functional
[25] = target: Lysosomal acid glucosylceramidase (Homo sapiens, UniProt P04062); test: Dose response cell-based high throughput screening assay to identify enhancers of beta-glucosidase activity. [Related pubchem assays: 784 ]; assay type: functional
Lysosomal acid glucosylceramidase, sequence (P04062 whole entry): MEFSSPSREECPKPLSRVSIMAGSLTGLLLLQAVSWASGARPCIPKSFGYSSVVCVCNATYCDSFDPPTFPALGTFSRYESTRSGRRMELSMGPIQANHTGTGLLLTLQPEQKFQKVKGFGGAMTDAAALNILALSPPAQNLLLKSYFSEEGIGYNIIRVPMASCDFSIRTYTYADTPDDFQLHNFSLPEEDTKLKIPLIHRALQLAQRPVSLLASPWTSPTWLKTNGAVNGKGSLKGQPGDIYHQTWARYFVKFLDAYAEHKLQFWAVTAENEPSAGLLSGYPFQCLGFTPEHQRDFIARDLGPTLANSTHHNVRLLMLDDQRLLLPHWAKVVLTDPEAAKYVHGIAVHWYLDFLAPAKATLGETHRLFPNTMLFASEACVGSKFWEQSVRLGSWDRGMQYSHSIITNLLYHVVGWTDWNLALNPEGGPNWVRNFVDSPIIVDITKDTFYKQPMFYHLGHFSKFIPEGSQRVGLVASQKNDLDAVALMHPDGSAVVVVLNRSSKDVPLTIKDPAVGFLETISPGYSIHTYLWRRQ

[26] = tested on: HeLa; test: HeLa cell cytotoxicity, dose response, cytotoxicity control, 24 h, cherry-picked samples (AID 504726); assay type: functional, cell-based; conditions: Homo sapiens;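 further: potency for cytotoxicity as loss of luminescence signal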
[27] = target: X-box-binding protein 1 (Homo sapiens, UniProt P17861); assay type: functional, Cricetulus griseus;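 further: confirmatory dose-response counter-screen serving a CHOP assay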
X-box-binding protein 1, sequence (P17861 whole entry): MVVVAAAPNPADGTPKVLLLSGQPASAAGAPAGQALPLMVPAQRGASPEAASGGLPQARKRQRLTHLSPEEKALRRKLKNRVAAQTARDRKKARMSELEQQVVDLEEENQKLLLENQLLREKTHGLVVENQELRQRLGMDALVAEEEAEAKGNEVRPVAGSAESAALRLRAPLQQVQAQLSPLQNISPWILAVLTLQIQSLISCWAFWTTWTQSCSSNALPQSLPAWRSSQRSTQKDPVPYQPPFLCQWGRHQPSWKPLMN

CC1CCN(c2nc3ccc(C(=O)O)cc3s2)CC1
IC50 [1]: > 80 µM (inactive)
EC50 [2]: > 50 µM (not active)
IC50 [3]: 1.82 µM (active)
EC50 [4]: 12.5 µM (not active)
EC50 [5]: > 8 µM (not active)
EC50 [6]: 0.268 µM (active)
EC50 [7]: 7.86 µM (active)
AC50 [8]: 1.25 µM (active)
EC50 [9]: 13.1 µM (inactive)

COc1ccc2c(c1)c(=O)oc1cc(OCC(=O)NC3CCCCC3)ccc12
IC50 [10]: 17.9 µM (active)
IC50 [11]: > 50 µM (not active)
IC50 [12]: 7.51 µM (active)
IC50 [13]: 6.74 µM (active)
IC50 [14]: 34.6 µM (active)

O=C(N/N=C/c1ccncc1)c1ccccc1
EC50 [15]: > 55.7 µM (not active)
EC50 [16]: > 55.7 µM (not active)

O=[N+]([O-])c1cc(-c2ncccn2)c([N+](=O)[O-])s1
IC50 [17]: 24 µM (inactive)
CC50 [18]: 23.2 µM (active)
IC50 [19]: 7.48 µM (active)
IC50 [20]: > 66.6 µM (inactive)
IC50 [21]: 6.92 µM (active)
IC50 [22]: 8.96 µM (active)
EC50 [23]: 6.64 µM (active)

Cc1cccc(C)c1NC(=O)C[N+](C)(C)CC(O)COc1cccc2ccccc12 (configuration not stated)
CC50 [24]: 22 µM (active)

Cc1nc(SCC(=O)Nc2ccc3c(c2)OCCO3)c2oc3ccccc3c2n1
EC50 [25]: > 50 µM (not active)

COc1cccc(NC(=O)N(CCN(C)C)C(C)c2cccnc2)c1 (configuration not stated)
AC50 [26]: 123 µM (active)

Cc1cccc(/C=C/c2nc(O)c3ccccc3n2)c1
Absolute IC50 (XBP1) [27]: 10 µM
